According to article PMC5727211, “Development of Erasin: a chromone-based STAT3 inhibitor which induces apoptosis in Erlotinib-resistant lung cancer cells” (Scientific Reports, 2017):

How the values were obtained:
Lck SH2 = molecular target: T1, Lck SH2 (Homo sapiens, UniProt P06239); experiment: FP-based competitive binding assay, Lck SH2 domain; conditions: at 80 µM
T1 construct: STAT1: 400 nM, STAT3: 210 nM, STAT5b: 300 nM, Lck SH2: 35 nM
Method: The STAT family display a high degree of homology. […] Vilsmeyer-Haack formylation of 2-hydroxy acetophenones led to 3-formyl chromones, which were subsequently converted to the acyl hydrazones by reaction with hydrazides (Fig. 1). The target molecules were tested for their abilities to inhibit binding of fluorophore-labeled peptides to the SH2 domains of STAT1[24], STAT3[25], and STAT5b[26] in assays based on fluorescence polarization (FP). The more distantly related SH2 domain of the tyrosine kinase Lck served as additional specificity control[27],[28].
Assays were performed essentially as described. In brief, protein was incubated with the test compounds for 1 h at room temperature at the following protein concentrations: STAT1: 400 nM, STAT3: 210 nM, STAT5b: 300 nM, Lck SH2: 35 nM. Subsequently, the corresponding fluorophore-labeled peptide was added: STAT1: (5-carboxyfluorescein)-GpYDKPHVL-OH, derived from the interferon-γ receptor[24]; STAT3: (5-carboxyfluorescein)-GpYLPQTV-NH2, derived from the gp130 subunit of the IL-6 receptor[25]; STAT5b: (5-carboxyfluorescein)-GpYLVLDKW-OH, derived from the erythropoietin receptor[26]; Lck SH2: (5-carboxyfluorescein)-GpYEEIP-OH, derived from the middle-T antigen. After a further hour of incubation, fluorescence polarization was measured in a plate reader (Tecan Infinite F500). Apparent IC50 data shown in Tables 1, 2, and S1 and the inhibition curves shown in Fig. 2a correspond to this time point. The majority of the pipetting work was carried out using a Biomek FXp workstation (Beckman-Coulter). Buffer composition: 10 mM Tris pH 8.0, 50 mM NaCl, 1 mM EDTA, 1 mM dithiothreitol (DTT), 0.1% Nonidet P-40, and 2% DMSO.
Supplementary Figures and Table
No Structure app. IC50 [µM] or
Supplementary Table S1: Activities of test compounds in fluorescence polarization assays against the
SH2 domains of Lck. See the Supporting Methods for details. […]

[1] = test system: STAT3 Tyr705 phosphorylation; experiment: Western Blot, IL-6-stimulated STAT3 Tyr705 phosphorylation in HepG2 cells; assay type: cell-based, human; conditions: 1 h pre-treatment, 30 min 50 ng/mL IL-6
Excerpt: (§1) An inhibitor of a STAT SH2 domain prevents phosphorylation of STATs at this conserved tyrosine residue, thereby inhibiting STAT-mediated signal transduction (Fig. 3a). Consistent with its activity in the FP assay, 8 inhibited interleukin (IL)-6-stimulated STAT3 Tyr705 phosphorylation in HepG2 cells in a dose-dependent manner (Fig. 3b). […] In contrast, tyrosine phosphorylation of STAT5 in K562 cells is not inhibited (Fig. 3d). The activity profile in cells thus reflects the selectivity profile seen in vitro (Fig. 2a, Table 1), supporting the notion that cellular activities are mediated by functional inhibition of the STAT SH2 domains.
(§2) HepG2 cells were plated in 6-well plates (Corning #3516) and allowed to reach approximately 60% confluence. The medium was then replaced with serum-free medium for 24 h. […]
(§3) Lysates were separated on a polyacrylamide gel under denaturing conditions, and transferred to a nitrocellulose membrane. STAT phosphorylation was assessed using rabbit monoclonal antibodies against the phosphorylated forms only of STAT1, STAT3 or STAT5 (Cell Signaling, 1:1000) with secondary antibody swine anti-rabbit HRP from Dako, 1:3000), followed by reblotting with rabbit monoclonal antibodies against total STAT1, STAT3 or STAT5 (Cell Signaling), and subsequently β-actin loading control. […]

[2] = test system: STAT1 Tyr701 phosphorylation; experiment: Western Blot, IFN-γ-stimulated STAT1 Tyr701 phosphorylation in HepG2 cells; assay type: cell-based, human; conditions: 1 h pre-treatment, 15 min 50 ng/mL IFNγ
Excerpt: as §1, §2, §3

MDA-MB-231 cells = experiment: Apoptosis assay (Annexin V/7-AAD flow cytometry), MDA-MB-231 cells; assay type: cell-based, human; conditions: 24 h
Method: MDA-MB-453 cells (3 × 10^5 cells per well), MDA-MB-231 cells (2 × 10^5 cells per well), parental HCC-827 or Erlotinib-resistant HCC-827 cells (both 2.5 × 10^5 cells per well) were seeded in 24-well tissue culture plates (Corning #3524) and treated with test compound or DMSO (final DMSO concentration: 0.2%) for 24 h. Afterwards, the cell culture supernatant from each well was collected. Cells were washed twice with warm PBS and incubated with Accutase (BD Bioscience #561527) at 37 °C for 10 min. The supernatants were then returned to each well to neutralize the Accutase solution and the cells were centrifuged at 3000 rpm, at 4 °C for 5 min. The cell pellets were washed twice with cold PBS and centrifuged again. PE Annexin V Apoptosis Detection Kit I (BD Bioscience, 559763) was used for cell staining. Cells were resuspended in 1 x binding buffer and incubated with PE Annexin V and 7-AAD at 4 °C for 30 min. Apoptosis was measured using an LSR II flow cytometer (BD Bioscience). Experiments were carried out in at least triplicate.

[3] = test system: STAT3 Tyr705 phosphorylation; experiment: Western Blot, STAT3 Tyr705 phosphorylation in Erlotinib-resistant HCC-827 cells; assay type: cell-based, human; conditions: 24 h
Method: HepG2 cells were plated in 6-well plates (Corning #3516) and allowed to reach approximately 60% confluence. The medium was then replaced with serum-free medium for 24 h. Cells were subsequently pre-treated with compound or DMSO (final DMSO concentration: 0.2%) for 1 h at 37 °C, prior to stimulation for 15 min with 50 ng/mL IFNγ (Pepro Tech, for STAT1 phosphorylation), or 30 min with 50 ng/mL IL-6 (Pepro Tech, for STAT3 phosphorylation). Cells were treated with test compound or DMSO for 1 h (final DMSO concentration 0.2%). K562 cells (1.5 × 10^6 cells per well) were seeded in 6-well plates (Corning #3516) and were treated with test compound or DMSO for 1.5 h (final DMSO concentration 0.2%). […] Afterwards, cells were treated with the test compounds or DMSO (final DMSO concentration: 0.2%) for 24 h. Afterwards, the cells were washed twice with cold phosphate buffered saline (PBS). […]
as §3

T1 sequence (P06239 127-224 limits assumed): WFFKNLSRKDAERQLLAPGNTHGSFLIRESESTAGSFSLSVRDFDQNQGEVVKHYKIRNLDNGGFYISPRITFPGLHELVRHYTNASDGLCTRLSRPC

| Structure (SMILES) | Lck inhibition (Lck SH2) | IL-6-stimulated STAT3 Tyr705 phosphorylation [1] | IFN-γ-stimulated phosphorylation of STAT1 Tyr701 [2] | increase in rate of apoptosis relative to DMSO control (MDA-MB-231 cells) | STAT3 Tyr705 phosphorylation [3] |
| --- | --- | --- | --- | --- | --- |
| CC(C)(C)c1ccc2occ(/C=N/NC(=O)c3cccnc3)c(=O)c2c1 [Compound 8] | no inhibition | inhibited | inhibited to a lesser extent | up to three-fold increase | dose-dependent inhibitory effect |
| CCC(C)(C)c1ccc2occ(/C=N/NC(=O)c3cccnc3)c(=O)c2c1 [Compound 9] | no inhibition | – | – | did not significantly increase apoptosis | did not reduce STAT3 Tyr705 phosphorylation |
